Experimental data from PubChem BioAssay AID1902 (Broad Institute, 2009).
The source made the active and inactive calls.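 Rule for the calls: active = EC50 no more than a set limit of log units above the highest dose; inactive = the rest.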

Molecular target: S. pyogenes SKKanGAS, kanamycin survival, BacTiterGlo, 6 h
Assay: S. pyogenes SKKanGAS kanamycin growth inhibitors – SKKanGAS strain, luminescence, dose confirmation, streptokinase promoter inhibitor project, dose response (AID 1902);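 note: lower survival reflects blocked streptokinase promoter driving kanamycin resistance gene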

SMILES	EC50
CCN1CCN(C(=O)N[C@@H](C(=O)N[C@@H]2C(=O)N3[C@@H]2SC(C)(C)[C@@H]3C(=O)O)c2ccccc2)C(=O)C1=O	0.285 µM
CO[C@H]1C=CO[C@@]2(C)Oc3c(C)c(O)c4c(O)c(c5c(nc6cc(C)ccn65)c4c3C2=O)NC(=O)C(C)=CC=C[C@H](C)[C@H](O)[C@@H](C)[C@@H](O)[C@@H](C)[C@H](OC(C)=O)[C@@H]1C	< 0.06 µM
O=C(N/N=C/c1cc([N+](=O)[O-])ccc1O)C(O)(c1ccccc1)c1ccccc1	6.17 µM
CC(C)CN(Cc1cc(=O)oc2cc(-c3ccccc3)c(O)cc12)CC(C)C	3.88 µM
Brc1ccc(C2C3=C(Nc4ncnn42)c2ccccc2OC3c2ccncc2)cc1 (stereo unspecified)	10.1 µM
C=C(C)COc1ccc(-c2nc(N)ncc2-c2ccc(Cl)cc2)c(O)c1	5.69 µM
CCOC(=O)c1sc(=S)n2c1[nH]c(=O)c1ccc(C(=O)OC)cc12	3.81 µM
CCCCCCCCOC(=O)/C=C/c1c(C)[nH]c(=O)[nH]c1=O	0.788 µM
CC(/C=C1\SC(=S)N(CCCC(=O)Nc2ccc(C(=O)O)cc2)C1=O)=C\c1ccccc1	0.19 µM
C=C(C)COc1ccc(-c2nc(N)ncc2Oc2ccc(OC)cc2)c(O)c1	6.59 µM
Cc1ccccc1-c1nc2c3ccccc3nc(=S)n2[nH]1	4.01 µM
Nc1n[nH]c(C2CC2)c1N=Nc1ccc(Cl)c(Cl)c1	2.05 µM
C=CC1=C(C(=O)O)N2C(=O)C(NC(=O)Cc3ccccc3)C2SC1 (stereo unspecified)	0.13 µM
CC(/C=C/c1ccc(N(C)C)cc1)=N/N=C1/NC(=O)CC(C(=O)Nc2ccc(Cl)cc2)S1 (stereo unspecified)	2.38 µM
CC(C)c1c(C(=O)N/N=C/c2cccc(OCc3ccc(F)cc3)c2)nnn1-c1nonc1N	5.19 µM
Cc1noc(C)c1C(=O)Nc1nccs1	> 15 µM (inactive)
O=C(/C=C/c1cccs1)NC(=S)NNC(=O)Cc1cccs1	2.56 µM
COCCn1c(SCc2nc3sc(C(=O)OC)c(C)c3c(=O)[nH]2)nc2ccccc21	3.54 µM
CCOC(=O)c1sc(NC(=O)Nc2cccc(Cl)c2)cc1C	2.39 µM
Cn1ncc2c(Nc3ccc(Cl)c(Cl)c3)ncnc21	4.82 µM
Cc1ccc(S(=O)(=O)NCC(=O)OCC(=O)N2N=C(c3ccc(Cl)cc3)CC2c2ccco2)cc1C (stereo unspecified)	8.17 µM
N/C(=N\N=C/c1ccc(Br)cc1)N/N=C\c1ccc(Br)cc1	3.8 µM
Cc1nn2c(COc3ccc(NC(=O)c4ccccc4)cc3)nnc2c2ccccc12	0.603 µM
CO[C@@]1(NC(=O)Cc2cccs2)C(=O)N2C(C(=O)O)=C(COC(N)=O)CS[C@@H]21	3.33 µM
Oc1cccc(/C=N/N(Cc2ccccc2)c2ccccc2)c1	6.02 µM
Cc1cccc(CSc2nc(N)c(C#N)c(-c3cccs3)c2C#N)c1	4.77 µM

SMILES	EC50
O=Cc1cc(N=Nc2ccccc2Cl)ccc1O	2.96 µM
CCOC(=O)c1ccc(NC(=O)c2nc[nH]c2C(=O)N[C@@H](CCCCNC(=O)OC(C)(C)C)C(=O)OC(C)(C)C)cc1	4.72 µM
O=C(CCCN1C(=O)/C(=C\c2cccs2)SC1=S)Nc1cc([N+](=O)[O-])ccc1O	5.04 µM
COc1cccc(-c2nnc(NC(=O)c3ccc(S(=O)(=O)N4CC(C)OC(C)C4)cc3)o2)c1 (stereo unspecified)	1.16 µM
CCCOc1cccc(-c2cc(C(=O)N/N=C/c3ccccn3)c3ccccc3n2)c1	1.87 µM
CCCN(CCC)c1nc(-c2ccccn2)nc2ccccc12	0.074 µM
CCc1ccccc1OCC(=O)Nc1nc(-c2cccnc2)cs1	1.05 µM
c1ccc(-c2nnc(-c3ccccn3)nc2NC2CCCCC2)cc1	2.95 µM
N#Cc1c(N)nc(Sc2ccc(Cl)cc2)c(C#N)c1-c1ccccc1Cl	6.03 µM
O=[N+]([O-])c1ccc(S(=O)(=O)Nc2ccc(-c3csc(-c4ccccc4)n3)cc2)cc1	2.79 µM
NNC(=O)CSc1nc(-c2ccccc2)nc2c1CCCC2	> 15 µM (inactive)
CCS(=O)(=O)N1Cc2ccccc2CC1C(=O)Nc1nnc(SCc2ccc(F)cc2)s1 (stereo unspecified)	2.35 µM
c1ccc(Nc2nc(N3CCCCC3)nc(N3CCCCC3)n2)cc1	8.25 µM
Oc1c(Cl)cc(Cl)c(Cl)c1Cc1c(O)c(Cl)cc(Cl)c1Cl	0.202 µM
Cc1ccc(Oc2ccc3c(c2)C(=O)N(c2cccc4cccnc24)C3=O)cc1	2.91 µM
C=C(C)C1Cc2c(C)nn(-c3cccc4ccccc34)c2C1 (stereo unspecified)	5.89 µM
CCCCNc1c(-c2ccc(-c3ccc(C(C)=O)cc3)c(OC)c2)nc2cnccn12	5.58 µM
Cc1cc(N/N=C/c2cccc(Cl)c2)nc(-n2nc(C)cc2C)n1	0.966 µM
O=C(Cn1sc2ccccc2c1=O)NC12CC3CC(CC(C3)C1)C2	1.12 µM
Cc1ccccc1/C=N/Nc1nc2ccccc2[nH]1	5.3 µM
CCc1ccc(/C=C/C(=O)c2cc(Br)ccc(=O)c2O)cc1	0.417 µM
Cc1cc(C)c2c(c1)NC(c1cc3c(cc1Br)OCO3)C1CC=CC21 (stereo unspecified)	8.13 µM
COC(C(=O)Nc1ccnn1C1CCN(Cc2nccs2)CC1)c1ccccc1 (stereo unspecified)	> 15 µM (inactive)
CC/C(=N\NC(=S)Nc1cc(C)ccc1C)c1ccc(OC(F)F)cc1	3.13 µM
Cc1ccc(Oc2ccc3c(c2)C(=O)N(c2ccc(S(=O)(=O)Nc4nccs4)cc2)C3=O)cc1	3.06 µM
Cc1ccc(C)c(NC(=S)N/N=C2/CCCCc3ccccc32)c1	0.643 µM

SMILES	EC50
CCCc1nc2ccccc2c(=O)n1/N=C/c1c(C)[nH]n(-c2ccc(C)cc2)c1=O	1.23 µM
COc1ccc(-c2nc(-c3cccs3)c(-c3cccs3)[nH]2)cc1OC	4.32 µM
Cc1ccccc1N=Nc1ccc(O)c2ncccc12	0.069 µM
CC(C)c1ccc2nc3sc(C(=O)N4CCc5ccccc5C4)c(N)c3cc2c1	14.5 µM
Cc1ccc2nc(-c3ccc(N)cc3)sc2c1	> 15 µM (inactive)
C/C(=N/Nc1cc(-c2ccccc2)nc(-c2ccccc2)n1)c1ccc(O)cc1	2.08 µM
CCCC(=O)NC(c1ccc(C(C)C)cc1)c1ccc2cccnc2c1O (stereo unspecified)	5.54 µM
COc1ccccc1NC(=O)Nc1nc(CC(=O)Nc2cc(F)ccc2F)cs1	8.85 µM
CC(C)C[C@H](NC(=O)c1nc[nH]c1C(=O)N1CCc2ccccc2C1)C(=O)OCc1ccccc1	9.87 µM
Oc1ccc(/C=N/N(Cc2ccccc2)c2ccccc2)cc1	6.16 µM
CCC(=C/c1sc2ccc3ccccc3c2[n+]1C)/C=C1\Sc2ccc3ccccc3c2N1C	2.67 µM
Cc1ccc(C(=O)C2=C(O)C(=O)N(Cc3ccco3)C2c2cccc(Br)c2)o1 (stereo unspecified)	6.67 µM
COCc1cc(=O)[nH]c(Nc2nc3ccccc3o2)n1	2.66 µM
CC(C)C1C(c2ccccc2)N(C)C(c2ccccc2)CC1(O)c1ccccc1 (stereo unspecified)	2.48 µM
CC1CCN(c2nc(CN3CCCCC3)nc3scc(-c4ccccc4)c23)CC1	3.02 µM
COC12C(COC(N)=O)C3=C(C(=O)C(C)=C(N)C3=O)N1CC1C2N1C (stereo unspecified)	< 0.06 µM
COc1ccc(NC(=O)C(=O)NNC(=O)C(C)Oc2ccc(Cl)cc2Cl)cc1 (stereo unspecified)	3.31 µM
CN(CC1CCCO1)S(=O)(=O)c1ccc(C(=O)Nc2ccccc2F)cc1 (stereo unspecified)	> 15 µM (inactive)
COc1cccc(/C=C/C(=C2/C(=O)N(c3ccccc3)N=C2C)c2ccc(Br)cc2)c1OC	> 15 µM (inactive)
O=C(N/N=C/c1sc2ccccc2c1O)c1ccccc1	0.929 µM
CCOc1cccc2sc(Nc3nc4ccc(NC(C)=O)cc4s3)nc12	4.69 µM
COc1cccc(-c2nn(-c3ccccc3)cc2C(=O)Nc2nccs2)c1	2.98 µM
Oc1ccccc1C(Nc1nccs1)c1ccc2cccnc2c1O (stereo unspecified)	4.35 µM
C/C(CC(=O)Nc1ccc(Cl)c(C(F)(F)F)c1)=N\NC(=O)c1cc2ccccc2cc1O	1.58 µM
